# Measurements published in ChEMBL document CHEMBL1201862, “PubChem BioAssay data set” (2004).
#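 Growth conditions: 96-well plates. Treatment: test compound, 48 hours, 5 concentrations. Analysis: linear interpolation between bracketing concentrations; unreached endpoints set to highest concentration. GI50 marks 50% less growth.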 The source made the active and inactive calls. No stated cut-off is given here; in the data, active = GI50 up to about 1.1 µM and inactive = higher.
# Key:
# Experiment in all cases: NCI-60 cell line screen, 48 h
# SNB-78 = system: SNB-78
# XF498 = system: XF498
# NCI-H522 = system: NCI-H522
# HT-29 = system: HT-29
# SK-MEL-5 = system: SK-MEL-5
# DMS-273 = system: DMS-273
# 786-0 = system: 786-0
# EKVX = system: EKVX
# SF-539 = system: SF-539
# A498 = system: A498
# OVCAR-4 = system: OVCAR-4
# SK-MEL-28 = system: SK-MEL-28
# MOLT-4 = system: MOLT-4
# UACC-62 = system: UACC-62
# HL-60 = system: HL-60
# SN12C = system: SN12C
# SK-MEL-2 = system: SK-MEL-2
# RXF 393 = system: RXF 393
# A549 = system: A549
# NCI-H23 = system: NCI-H23
# SF-268 = system: SF-268
# HOP-92 = system: HOP-92
# LXFL 529 = system: LXFL 529
# OVCAR-5 = system: OVCAR-5
# HCT-15 = system: HCT-15
# U-251 = system: U-251
# CCRF-CEM = system: CCRF-CEM
# LOX IMVI = system: LOX IMVI
# KM-20L2 = system: KM-20L2
# HCT-116 = system: HCT-116
# CAKI-1 = system: CAKI-1
# UO-31 = system: UO-31
# NCI-H226 = system: NCI-H226
# OVCAR-8 = system: OVCAR-8
# DLD-1 = system: DLD-1
# RPMI-8226 = system: RPMI-8226
# ACHN = system: ACHN
# HOP-62 = system: HOP-62
# SF-295 = system: SF-295
# K562 = system: K562
# UACC-257 = system: UACC-257
# SW-620 = system: SW-620
# IGROV-1 = system: IGROV-1
# TK-10 = system: TK-10
# COLO 205 = system: COLO 205
# HCC 2998 = system: HCC 2998
# Malme-3M = system: Malme-3M
# OVCAR-3 = system: OVCAR-3
# M19-MEL = system: M19-MEL
# DMS-114 = system: DMS-114
# M14 = system: M14
# SNB-75 = system: SNB-75
# SNB-19 = system: SNB-19
# KM12 = system: KM12
# SK-OV-3 = system: SK-OV-3
# NCI-H460 = system: NCI-H460
# HOP-18 = system: HOP-18
# SR = system: SR
structure (smiles),measurement,setting,value
CCN(CC)c1ccc(/N=N/c2ccc(-c3nc4cccnc4o3)cc2)cc1,GI50,SNB-78,> 100 µM (inactive)
same,GI50,XF498,> 100 µM (inactive)
same,GI50,NCI-H522,66.4 µM (inactive)
same,GI50,HT-29,> 100 µM (inactive)
same,GI50,SK-MEL-5,> 100 µM (inactive)
same,GI50,DMS-273,> 100 µM (inactive)
same,GI50,786-0,> 100 µM (inactive)
same,GI50,EKVX,> 100 µM (inactive)
same,GI50,SF-539,> 100 µM (inactive)
same,GI50,A498,> 100 µM (inactive)
same,GI50,OVCAR-4,> 100 µM (inactive)
same,GI50,SK-MEL-28,> 100 µM (inactive)
same,GI50,MOLT-4,> 100 µM (inactive)
same,GI50,UACC-62,> 100 µM (inactive)
same,GI50,HL-60,> 100 µM (inactive)
same,GI50,SN12C,> 100 µM (inactive)
same,GI50,SK-MEL-2,> 100 µM (inactive)
same,GI50,RXF 393,> 100 µM (inactive)
same,GI50,A549,> 100 µM (inactive)
same,GI50,NCI-H23,> 100 µM (inactive)
same,GI50,SF-268,> 100 µM (inactive)
same,GI50,HOP-92,> 100 µM (inactive)
same,GI50,LXFL 529,> 100 µM (inactive)
same,GI50,OVCAR-5,> 100 µM (inactive)
same,GI50,HCT-15,> 100 µM
same,GI50,U-251,> 100 µM (inactive)
same,GI50,CCRF-CEM,> 100 µM (inactive)
same,GI50,LOX IMVI,> 100 µM (inactive)
same,GI50,KM-20L2,> 100 µM (inactive)
same,GI50,HCT-116,> 100 µM (inactive)
same,GI50,CAKI-1,> 100 µM (inactive)
same,GI50,UO-31,> 100 µM (inactive)
same,GI50,NCI-H226,> 100 µM (inactive)
same,GI50,OVCAR-8,> 100 µM (inactive)
same,GI50,DLD-1,60.3 µM (inactive)
same,GI50,RPMI-8226,> 100 µM (inactive)
same,GI50,ACHN,> 100 µM (inactive)
same,GI50,HOP-62,> 100 µM (inactive)
same,GI50,SF-295,> 100 µM (inactive)
same,GI50,K562,> 100 µM (inactive)
same,GI50,UACC-257,> 100 µM (inactive)
same,GI50,SW-620,> 100 µM (inactive)
same,GI50,IGROV-1,> 100 µM (inactive)
same,GI50,TK-10,> 100 µM (inactive)
same,GI50,COLO 205,> 100 µM (inactive)
same,GI50,HCC 2998,55.2 µM (inactive)
same,GI50,Malme-3M,> 100 µM (inactive)
same,GI50,OVCAR-3,> 100 µM (inactive)
same,GI50,M19-MEL,> 100 µM (inactive)
same,GI50,DMS-114,> 100 µM (inactive)
same,GI50,M14,> 100 µM (inactive)
same,GI50,SNB-75,> 100 µM (inactive)
same,GI50,SNB-19,> 100 µM (inactive)
same,GI50,KM12,> 100 µM (inactive)
CC1=CC2C(C=C1)S(=O)(=O)N1CC21c1ccccc1 (configuration not stated),GI50,SNB-78,> 100 µM (inactive)
same,GI50,NCI-H522,> 100 µM (inactive)
same,GI50,HT-29,> 100 µM (inactive)
same,GI50,SK-MEL-5,> 100 µM (inactive)
same,GI50,DMS-273,> 100 µM (inactive)
same,GI50,786-0,> 100 µM (inactive)
same,GI50,SF-539,> 100 µM (inactive)
same,GI50,A498,> 100 µM (inactive)
same,GI50,SK-MEL-28,> 100 µM (inactive)
same,GI50,UACC-62,64.6 µM (inactive)
same,GI50,SK-OV-3,> 100 µM (inactive)
same,GI50,HL-60,> 100 µM (inactive)
same,GI50,SN12C,> 100 µM (inactive)
same,GI50,SK-MEL-2,> 100 µM (inactive)
same,GI50,A549,> 100 µM (inactive)
same,GI50,NCI-H23,> 100 µM (inactive)
same,GI50,SF-268,> 100 µM (inactive)
same,GI50,HOP-92,15.1 µM (inactive)
same,GI50,LXFL 529,> 100 µM (inactive)
same,GI50,OVCAR-5,> 100 µM (inactive)
same,GI50,HCT-15,> 100 µM
same,GI50,NCI-H460,> 100 µM (inactive)
same,GI50,U-251,> 100 µM (inactive)
same,GI50,HOP-18,54 µM (inactive)
same,GI50,CCRF-CEM,> 100 µM (inactive)
same,GI50,LOX IMVI,33.5 µM (inactive)
same,GI50,KM-20L2,> 100 µM (inactive)
same,GI50,HCT-116,> 100 µM (inactive)
same,GI50,CAKI-1,44.2 µM (inactive)
same,GI50,UO-31,55.1 µM (inactive)
same,GI50,OVCAR-8,> 100 µM (inactive)
same,GI50,DLD-1,> 100 µM (inactive)
same,GI50,RPMI-8226,> 100 µM (inactive)
same,GI50,ACHN,> 100 µM (inactive)
same,GI50,HOP-62,> 100 µM (inactive)
same,GI50,SF-295,> 100 µM (inactive)
same,GI50,K562,69.2 µM (inactive)
same,GI50,UACC-257,> 100 µM (inactive)
same,GI50,SW-620,> 100 µM (inactive)
same,GI50,IGROV-1,> 100 µM (inactive)
same,GI50,TK-10,> 100 µM (inactive)
same,GI50,SR,90.8 µM (inactive)
same,GI50,COLO 205,> 100 µM (inactive)
same,GI50,HCC 2998,> 100 µM (inactive)
same,GI50,Malme-3M,> 100 µM (inactive)
same,GI50,OVCAR-3,> 100 µM (inactive)
same,GI50,M19-MEL,> 100 µM (inactive)
same,GI50,DMS-114,21.4 µM (inactive)
same,GI50,M14,> 100 µM (inactive)
same,GI50,SNB-75,> 100 µM (inactive)
same,GI50,SNB-19,> 100 µM (inactive)
same,GI50,KM12,> 100 µM (inactive)
c1ccc(-n2cnnc2-c2nsc3ccccc23)cc1,GI50,SNB-78,> 100 µM (inactive)
same,GI50,HT-29,> 100 µM (inactive)
same,GI50,SK-MEL-5,> 100 µM (inactive)
same,GI50,DMS-273,> 100 µM (inactive)
same,GI50,EKVX,> 100 µM (inactive)
same,GI50,SF-539,> 100 µM (inactive)
same,GI50,OVCAR-4,> 100 µM (inactive)
same,GI50,SK-MEL-28,> 100 µM (inactive)
same,GI50,MOLT-4,> 100 µM (inactive)
same,GI50,UACC-62,> 100 µM (inactive)
same,GI50,HL-60,> 100 µM (inactive)
same,GI50,SN12C,> 100 µM (inactive)
same,GI50,SK-MEL-2,> 100 µM (inactive)
same,GI50,RXF 393,> 100 µM (inactive)
same,GI50,A549,> 100 µM (inactive)
same,GI50,NCI-H23,> 100 µM (inactive)
same,GI50,SF-268,> 100 µM (inactive)
same,GI50,HOP-92,53.1 µM (inactive)
same,GI50,LXFL 529,> 100 µM (inactive)
same,GI50,OVCAR-5,> 100 µM (inactive)
same,GI50,HCT-15,74 µM
same,GI50,NCI-H460,> 100 µM (inactive)
same,GI50,U-251,> 100 µM (inactive)
same,GI50,HOP-18,9.71 µM (inactive)
same,GI50,CCRF-CEM,> 100 µM (inactive)
same,GI50,LOX IMVI,> 100 µM (inactive)
same,GI50,KM-20L2,> 100 µM (inactive)
same,GI50,HCT-116,> 100 µM (inactive)
same,GI50,UO-31,> 100 µM (inactive)
same,GI50,OVCAR-8,> 100 µM (inactive)
same,GI50,RPMI-8226,> 100 µM (inactive)
same,GI50,ACHN,67.3 µM (inactive)
same,GI50,HOP-62,> 100 µM (inactive)
same,GI50,K562,> 100 µM (inactive)
same,GI50,UACC-257,> 100 µM (inactive)
same,GI50,SW-620,> 100 µM (inactive)
same,GI50,IGROV-1,> 100 µM (inactive)
same,GI50,TK-10,> 100 µM (inactive)
same,GI50,COLO 205,> 100 µM (inactive)
same,GI50,HCC 2998,> 100 µM (inactive)
same,GI50,OVCAR-3,80.2 µM (inactive)
same,GI50,M19-MEL,> 100 µM (inactive)
same,GI50,M14,> 100 µM (inactive)
same,GI50,SNB-75,29.5 µM (inactive)
same,GI50,SNB-19,> 100 µM (inactive)
same,GI50,KM12,> 100 µM (inactive)
